# Laboratory results reported in paper PMC3652196, “Pharmacometrics of 3-Methoxypterostilbene: A Component of Traditional Chinese Medicinal Plants” (Evidence-based Complementary and Alternative Medicine : eCAM, 2013).
# “And” between values parts separate entries of the source, which are not always exact repeats. Identical values can stand only once. Like-named read-outs stand apart in the source and are kept apart here.
# Assays:
# [1] = Antioxidant capacity (inhibition of oxidation of ABTS to ABTS radical cation by metmyoglobin, Cayman kit); type: biochemical; settings: for Antioxidant capacity (Trolox equivalents): n = 4, mean ± SEM
# Procedure: The amount of ABTS^∙+ can be monitored spectrophotometrically. The degree of suppression of absorbance caused by the compound of interest is proportional to the concentration of […], which is expressed as Trolox equivalents (μg/mL). […] No additional dilution was employed. To run the assay, 10 μL of sample was combined with 10 μL metmyoglobin and 150 μL chromogen. Then, 40 μL of hydrogen peroxide working solution was added within 1 min to all the samples. The plate was covered and incubated on a shaker for 5 min at room temperature […]), and the absorbance was measured at 750 nm using the Synergy HT multiwell plate reader and Gen5 data analysis software (Biotek Instruments Inc., Winooski, VT, USA). The assay was performed in quadruplet. For more information regarding the assay protocol, please refer to the instructions for the kit (Antioxidant Assay Kit from Cayman Chemical—Cat. no. 709091).
# [2] = Pharmacokinetic study in cannulated male Sprague-Dawley rats (serum and urine, HPLC); type: in vivo, rat; settings: for CL renal: serum and urine; for AUC: n = 4 (abstract); for bioavailability: read-out: Bioavailability (F%); for AUC(0-inf): n = 4; for Cumulative amount excreted in urine: over 72 h; for CLhepatic: CLtotal − CLrenal
# Text: The HPLC system used was a Shimadzu HPLC (Kyoto, Japan), consisting of two LC-10A pumps, a SIL-10AF autoinjector, a SPD-M10A photodiode array detector, and a SCL-10A system controller. Data collection and integration were achieved using Shimadzu EZ Start Class VP (version 7.4) software. A Phenomenex Luna C18(2) (5 μm, 250 × 4.60 mm) column was used. The mobile phase consisted of acetonitrile and water (62 : 38 v/v) that were filtered and degassed under reduced pressure prior to use. Pinosylvin was used as the internal standard. […] Ultraviolet detection was carried out at 327 nm. […] The bias of the assay was <15% and was within 13% at the LOQ [9].
# Male Sprague-Dawley rats (≈200 g) were obtained from Simonsen Laboratories (Gilroy, CA, USA) and allowed food (Purina Rat Chow 5001) and water ad libitum upon arrival to the vivarium. Rats were housed in a temperature- and humidity-controlled facility with a 12 h light/dark cycle. Prior to the first day of the pharmacokinetic experiment, the rats were anesthetized using isoflurane (IsoFlo, Abbott Laboratories, Abbot Park, IL, USA) coupled with an oxygen regulator, and monitored by pedal reflex and respiration rate to maintain a surgical plane of anesthesia. The right jugular veins of the rats were cannulated with sterile silastic cannulas (Dow Corning, Midland, MI, USA). After cannulation, Intramedic PE-50 polyethylene tubing (Becton, Dickinson and Company, Franklin Lakes, NJ, USA) was exposed through the dorsal skin. The cannulas were flushed with nonheparinized 0.9% sterile saline solution. The animals were placed in metabolic cages to recover and fasted overnight.
# No pharmacokinetics studies are reported in the literature for 3-methoxypterostilbene. Despite the paucity of 3-methoxypterostilbene pharmacokinetic studies in the literature, studies on other stilbenes have reported intravenous (IV) dosage ranges from 10 to 20 mg/kg and from 50 to 300 mg//kg for oral (PO) dosage. In keeping with the literature, doses of 10 mg/kg IV and 100 mg/kg PO were chosen.
# Male Sprague-Dawley rats (n = 8, average weight 200 g) were cannulated as described in the Animals and Surgical Procedures section. The animals were placed in metabolic cages following surgery where they were recovered overnight and fasted for 12 h prior to dosing. On the day of the experiment, the animals were dosed with 3-methoxypterostilbene in PEG 400 either IV (10 mg/kg, n = 4) or PO (100 mg/kg, n = 4). After dosing, a series of whole blood samples (0.5 mL) were collected at 0, 1, and 15 min, and 0.5, 1, 2, 4, 6, 12, 24, 48, and 72 h and 0, 0.25, 0.5, 1, 2, 4, 6, 12, 24, 48, and 72 h for IV and PO dosed rats, respectively. The cannulas were flushed with 0.5 mL 0.9% nonheparinized saline solution after each sample collection. The samples were collected into regular 2.0 mL Eppendorf tubes, centrifuged at 10,000 rpm for 5 min (Beckman Microfuge centrifuge, Beckman Coulter Inc., Fullerton, CA, USA), and the serum was collected. The serum was divided into two 0.1 mL fractions and placed into regular 2.0 mL Eppendorf tubes labeled as free and total serum samples. Samples were stored at −20°C until analyzed. Urine samples were also collected at 0, 2, 6, 12, 24, 48, and 72 h following 3-methoxypterostilbene administration. The volumes of urine produced by the rats were recorded, and two 0.1 mL aliquots were collected into separate prelabeled regular polypropylene microcentrifuge tubes and labeled as free and total urine samples and stored at −20°C until analyzed. At 72 h after dose, the animals were euthanized exsanguinated, and serum was collected.
# Serum and urine samples (0.1 mL) were run in duplicate with or without the addition of 20 μL of 500 U/mL β-glucuronidase and incubated in a shaking water bath at 37°C for 2 h to liberate any glucuronide conjugates. The proteins present in the serum samples were precipitated using 1 mL of −20°C acetonitrile. […]
# [3] = tested on: 9 KB; set-up: method as in PMID 3598597; settings: cited from earlier work
# [4] = rat, intravenous 10 mg/kg, mean ± SEM
# [5] = rat, oral 100 mg/kg, mean ± SEM
# [6] = rat, oral 100 mg/kg, mean ± SEM, 100 mg/kg
smiles,measurement,setting,value
"COc1cc(/C=C/c2ccc(O)c(OC)c2)cc(OC)c1 [3-methoxypterostilbene, trans-3,3′-5-trimethoxy-4′-hydro-xystilbene]",Antioxidant activity (in words),[1]; 1-100 μg/mL,modest concentration-dependent antioxidant activity
same,Antioxidant capacity (Trolox equivalents),[1]; at 1 μg/mL in DMSO,98.6 ± 13.7 μg/mL and 0.394 ± 0.0546 mM
same,Antioxidant capacity (Trolox equivalents),[1]; at 100 μg/mL in DMSO,174 ± 2.70 μg/mL and 0.695 ± 0.0094 mM
same,CL renal,"[2]; male, Sprague-Dawley, rat, intravenous 10 mg/kg, mean ± SEM",12.7 mL/min/kg
same,CL renal,"[2]; male, Sprague-Dawley, rat, oral 100 mg/kg, mean ± SEM",0.167 mL/min/kg
same,AUC,"[2]; male, Sprague-Dawley, serum, rat, IV 10 mg/kg, mean ± SEM",48.1 ± 23.8 µg·h/mL
same,concentration at 24 h,"[2]; male, Sprague-Dawley, serum, rat, IV 10 mg/kg, below detectable concentrations, read-out: Serum concentration after 24 hours",< 50 ng/mL
same,AUC,"[2]; male, Sprague-Dawley, serum, rat, PO 100 mg/kg, mean ± SEM",229 ± 44.6 µg·h/mL
same,MRT,"[2]; male, Sprague-Dawley, serum, rat, intravenous 10 mg/kg, mean ± SEM",26 ± 15 h
same,clearance,"[2]; male, Sprague-Dawley, serum, rat, intravenous 10 mg/kg, mean ± SEM, read-out: CLtotal (converted)",797 mL/min/kg
same,half-life,"[2]; male, Sprague-Dawley, serum, rat, intravenous 10 mg/kg, mean ± SEM, read-out: t 1/2 serum (converted)",18.9 ± 10.9 h
same,bioavailability,"[2]; male, Sprague-Dawley, serum, rat, intravenous 10 mg/kg",100%
same,bioavailability,"[2]; male, Sprague-Dawley, serum, rat, oral 100 mg/kg vs 10 mg/kg IV, mean ± SEM",50.6 ± 10%
same,MRT,"[2]; male, Sprague-Dawley, serum, rat, oral 100 mg/kg, mean ± SEM",105 ± 13.1 h
same,half-life,"[2]; male, Sprague-Dawley, serum, rat, oral 100 mg/kg, mean ± SEM, read-out: t 1/2 serum (converted)",73.3 ± 8.91 h
same,half-life,"[2]; male, Sprague-Dawley, urine, rat, intravenous 10 mg/kg, mean ± SEM, read-out: t 1/2 urine (converted)",9.54 ± 1.51 h
same,half-life,"[2]; male, Sprague-Dawley, urine, rat, oral 100 mg/kg, mean ± SEM, read-out: t 1/2 urine (converted)",20.6 ± 3.01 h
same,Tmax,"[2]; male, Sprague-Dawley, rat serum, PO 100 mg/kg, average",0.5 h
same,AUC(0-inf),"[2]; male, Sprague-Dawley, rat serum, intravenous 10 mg/kg, mean ± SEM",48.1 ± 23.8 µg·h/mL
same,AUC(0-inf),"[2]; male, Sprague-Dawley, rat serum, oral 100 mg/kg, mean ± SEM",229 ± 44.6 µg·h/mL
same,Cumulative amount excreted in urine,"[2]; rat, IV 10 mg/kg (~2 mg per rat)",~ 98 μg
same,Cumulative amount excreted in urine,"[2]; rat, PO 100 mg/kg (20 mg per rat)",341 µg
same,f e (fraction excreted in urine unchanged),[2]; [4],1.64 ± 0.950%
same,Vdβ,"[2]; rat, intravenous 10 mg/kg, mean ± SEM, 10 mg/kg",5.11 ± 0.38 L/kg and 5.11 ± 0.380 L/kg
same,CLhepatic,[2]; [4],785 ± 388 mL/min/kg
same,CLtotal,[2]; [5],8 ± 1.33 mL/min/kg
same,f e (fraction excreted in urine unchanged),[2]; [5],1.24 ± 0.160%
same,Vdβ,[2]; [6],52.0 ± 10.0 L/kg and 52.0 ± 10.5 L/kg
same,CLhepatic,[2]; [6],8 ± 151.33 mL/min/kg and 8 ± 1.33 mL/min/kg
same,Activity in 9 KB cytotoxicity assay compared with piceatannol,[3],significantly greater activity
